# Reference: US10034886B2, “GLP-1 receptor modulators” (Celgene International II SÀRL, priority 2014, dated 2018)
# Target: T1, GLP-1R (Homo sapiens, UniProt P43220)
# T1 construct: host or cells: GLP-1R CRE-bla CHO-K1 cells
# Test: EC20 GLP-1(9-36) PAM cAMP assay: dose response of compound in the presence of fixed concentration of GLP-1(9-36)
# Type: cell-based
# Conditions: GLP-1R CRE-bla CHO-K1 cells, compound dose response with fixed concentration of GLP-1(9-36), read-out: EC20 GLP-1(9-36) PAM EC50
# Method in brief: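 GLP-1R CRE-bla CHO-K1 cells treated 30 min at 37 °C with 12-point compound dose response plus fixed EC20 GLP-1(9-36), with IBMX, in HBSS/HEPES/0.1% BSA pH 7.4. Total cAMP measured by luminescent detection against standard curve; EC50 and Emax from non-linear regression.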
# T1 sequence (P43220 24-463): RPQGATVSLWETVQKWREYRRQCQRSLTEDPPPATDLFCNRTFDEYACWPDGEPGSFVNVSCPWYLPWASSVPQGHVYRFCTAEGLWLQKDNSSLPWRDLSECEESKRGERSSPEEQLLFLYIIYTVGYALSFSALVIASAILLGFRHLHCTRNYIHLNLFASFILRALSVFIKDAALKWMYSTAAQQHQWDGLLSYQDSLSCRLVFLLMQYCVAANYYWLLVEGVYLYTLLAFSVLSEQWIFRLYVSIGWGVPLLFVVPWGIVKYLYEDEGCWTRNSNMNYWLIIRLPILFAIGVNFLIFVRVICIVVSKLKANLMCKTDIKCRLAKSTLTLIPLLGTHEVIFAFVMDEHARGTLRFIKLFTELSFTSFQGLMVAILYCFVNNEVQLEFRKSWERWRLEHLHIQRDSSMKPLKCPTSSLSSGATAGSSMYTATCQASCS
# T1 sequence (P01275 100-127 partner limits assumed): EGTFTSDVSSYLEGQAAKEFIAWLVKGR
row,EC50 [nM],Compound
1,< 800,CCC[C@H]1CC[C@H](C2CCN(c3cnc(-c4ccc(C[C@H](NC(=O)c5ccc(C(C)(C)C)s5)C(=O)N[C@@H](C(=O)O)C(C)C)cc4)nc3)CC2)CC1 [Compound 1449]
2,800 to 2500,CCOc1ccc(-c2ccc(-c3cnc(-c4ccc(C[C@H](NC(=O)c5ccc(C(C)(C)C)s5)C(=O)N[C@H](C)C(=O)O)cc4)nc3)cc2)cc1 [Compound 1287]
3,< 800,CCC[C@H]1CC[C@H](C2CCN(c3cnc(-c4ccc(C[C@H](NC(=O)c5ccc(CC)cc5)C(=O)N5CC(C(=O)O)C5)cc4)nc3)CC2)CC1 [Compound 1529]
4,2500 to 5000,CCCC(C)Oc1ccc(-c2ccc(-c3cnc(-c4ccc(C[C@H](NC(=O)c5ccc(C(C)(C)C)s5)C(=O)N[C@H](C)C(=O)O)cc4)nc3)cc2)cc1 (some centres unmarked) [Compound 1296]
5,800 to 2500,COc1ccccc1C1CCN(c2cnc(-c3ccc(C[C@H](NC(=O)c4ccc(C(C)(C)C)s4)C(=O)N4CC(C(=O)O)C4)cc3)nc2)CC1 [Compound 1492]
6,800 to 2500,CCC[C@H]1CC[C@H](C2CCN(c3cnc(-c4ccc(C[C@H](NC(=O)c5ccc(C)s5)C(=O)N5CC(C(=O)O)C5)cc4)nc3)CC2)CC1 [Compound 1530]
7,< 800,CC(C)(C)c1ccc(C(=O)N[C@@H](Cc2ccc(-c3ncc(-c4ccc(-c5cccc(OC(F)(F)F)c5)cc4F)cn3)cc2)C(=O)N2CC(C(=O)O)C2)s1 [Compound 1215]
8,5000 to 10000,CC(C)(C)c1ccc(C(=O)N[C@@H](Cc2ccc(-c3ncc(N4CCC(c5ccc(CC#N)cc5)CC4)cn3)cc2)C(=O)N2CC(C(=O)O)C2)s1 [Compound 1500]
9,800 to 2500,COCCc1ccc(C2CCN(c3cnc(-c4ccc(C[C@H](NC(=O)c5ccc(C(C)(C)C)s5)C(=O)N5CC(C(=O)O)C5)cc4)nc3)CC2)cc1 [Compound 1495]
10,800 to 2500,CCCc1ccc(C2CCN(c3cnc(-c4ccc(C[C@H](NC(=O)c5ccc(C(C)(C)C)s5)C(=O)N5CC(C(=O)O)C5)cc4)nc3)CC2)cn1 [Compound 1498]
11,800 to 2500,C[C@@H](NC(=O)[C@H](Cc1ccc(-c2ncc(-c3ccc4c(c3)Cc3ccccc3-4)cn2)cc1)NC(=O)c1ccc(C(C)(C)C)s1)C(=O)O [Compound 1299]
12,< 800,C[C@@H](NC(=O)[C@H](Cc1ccc(-c2ncc(-c3ccc(-c4ccc(OC(F)(F)F)cc4)cc3)cn2)cc1)NC(=O)c1ccc(C(C)(C)C)s1)C(=O)O [Compound 1314]
13,800 to 2500,CC[C@H]1CC[C@H](c2ccc(-c3cnc(-c4ccc(C[C@H](NC(=O)c5ccc(C(C)(C)C)s5)C(=O)N[C@H](C(=O)O)C(C)C)cc4)nc3)cc2)CC1 [Compound 1328]
14,< 800,CC(C)(C)c1ccc(C(=O)N[C@@H](Cc2ccc(-c3ncc(-c4ccc(-c5ccc(C(F)(F)F)cc5)cc4F)cn3)cc2)C(=O)O)s1 [Compound 1364]
15,< 800,CC(C)(C)c1ccc(C(=O)N[C@@H](Cc2ccc(-c3ncc(-c4ccc(-c5ccccc5C(F)(F)F)cc4F)cn3)cc2)C(=O)N2CC(C(=O)O)C2)s1 [Compound 1223]
16,2500 to 5000,CC(C)(C)c1ccc(C(=O)N[C@@H](Cc2ccc(-c3ncc(-c4ccc([C@H]5CC[C@H](C)CC5)cc4)cn3)cc2)C(=O)O)s1 [Compound 1358]
17,< 800,CC(C)(C)c1ccc(C(=O)N[C@@H](Cc2ccc(-c3ncc(-c4ccc(-c5ccc(C(F)(F)F)c(F)c5)cc4F)cn3)cc2)C(=O)N2CC(C(=O)O)C2)s1 [Compound 1217]

# Same assay, conditions: dose response of compound in presence of fixed concentration of GLP-1(9-36), GLP-1R CRE-bla CHO-K1 cells, read-out: EC20 GLP-1(9-36) PAM EC50
row,EC50 [nM],Compound
1,< 800,CCCCCCCOc1ccc(-c2cnc(-c3ccc(C[C@H](NC(=O)c4ccc(C(C)(C)C)s4)C(=O)NC(C(=O)O)C(O)c4ccc(OC)cc4)cc3)nc2)cc1 (some centres unmarked) [Compound 644]
2,2500 to 5000,CCCCCCCOc1ccc(-c2cnc(-c3ccc(C[C@H](NC(=O)c4ccc(C(C)(C)C)cc4)C(=O)N4CC(C(=O)O)CC4C)cc3)nc2)cc1 (some centres unmarked) [Compound 893]
3,800 to 2500,CC(C)(C)c1ccc(C(=O)N[C@@H](Cc2ccc(-c3ncc(-c4ccc(OC5CCCC5)cc4)cn3)cc2)C(=O)N2CC(C(=O)O)C2)s1 [Compound 779]
4,5000 to 10000,C[C@@H](NC(=O)[C@H](Cc1ccc(-c2ncc(-c3ccc(OC(F)(F)F)c(OCC4CC4)c3)cn2)cc1)NC(=O)c1ccc(C(C)(C)C)s1)C(=O)O [Compound 1027]
5,2500 to 5000,"CCCCCCc1nc(-c2cnc(-c3ccc(C[C@H](NC(=O)c4ccc(C(C)(C)C)cc4)C(=O)O)cc3)nc2)no1 [Compound 248, (S)-2-(4-(tert-butyl)benzamido)-3-(4-(5-(5-hexyl-1,2,4-oxadiazol-3-yl)pyrimidin-2-yl)phenyl)propanoic acid]"
6,2500 to 5000,CC(C)(C)c1ccc(-c2cnc(-c3ccc(CC(NC(=O)c4ccc(C(C)(C)C)s4)C(=O)O)cc3F)nc2)cc1 (centres unmarked) [Compound 391]
7,2500 to 5000,CCCCCCCOc1ccc(-c2cnc(-c3ccc(C[C@H](NC(=O)c4ccc(C(C)(C)C)s4)C(=O)N4C[C@@H](F)C[C@@H]4C(=O)O)cc3)nc2)cc1 [Compound 871]
8,800 to 2500,CCCCCCCOc1ccc(-c2cnc(-c3ccc(C[C@H](NC(=O)c4ccc(C(C)(C)C)s4)C(=O)NC4(C(=O)O)CC(F)(F)C4)cc3)nc2)cc1 [Compound 876]
9,800 to 2500,CCCCCCCOc1ccc(-c2cnc(-c3ccc(C[C@H](NC(=O)c4ccc(C(C)(C)C)s4)C(=O)NC4CCC(C(=O)O)C4)cc3)nc2)cc1 (some centres unmarked) [Compound 608]
10,2500 to 5000,CCCCCCCOc1ccc(-c2cnc(-c3ccc(C[C@H](NC(=O)c4ccc(C(C)(C)C)s4)C(=O)N4CC(C(=O)O)C(C)(C)C4)cc3)nc2)cc1 (some centres unmarked) [Compound 638]
11,< 800,CCCCCCCOc1ccc(-c2cnc(-c3ccc(CC(NC(=O)c4ccc(C(C)(C)C)s4)C(=O)N[C@@H](CCSC)C(=O)O)cc3)nc2)cc1 (some centres unmarked) [Compound 416]
12,800 to 2500,CCCCOc1ccc(-c2cnc(-c3ccc(C[C@H](NC(=O)c4ccc(C(C)(C)C)s4)C(=O)N4CC(C(=O)O)C4)cc3)nc2)cc1 [Compound 786]
13,800 to 2500,"CC(C)CCCOc1ccc(-c2cnc(-c3ccc(C[C@H](NC(=O)c4ccc(C(C)(C)C)s4)C(=O)N4CC(C(=O)O)C4)cc3)nc2)cc1 [Compound 798, (S)-1-(2-(5-(tert-butyl)thiophene-2-carboxamido)-3-(4-(5-(4-((4-methylpentyl)oxy)phenyl)-pyrimidin-2-yl)phenyl)propanoyl)azetidine-3-carboxylic acid]"
14,800 to 2500,CCCCCCCOc1ccc(-c2cnc(-c3ccc(C[C@H](NC(=O)c4ccc(CCCC)cc4)C(=O)N[C@H](C)C(=O)O)cc3)nc2)cc1 [Compound 821]
15,5000 to 10000,CCCCCCCOc1ccc(-c2cnc(-c3ccc(C[C@H](NC(=O)c4ccc(C(C)(C)C)s4)C(=O)N4CCCNCC4)cc3)nc2)cc1 [Compound 966]
16,< 800,CCCCCCCOc1ccc(-c2cnc(-c3ccc(C[C@H](NC(=O)c4ccc(C(C)(C)C)s4)C(=O)N[C@@H](CC(=O)O)C(=O)N4CCOCC4)cc3)nc2)cc1 [Compound 533]
17,5000 to 10000,CCCCCCCOc1ccc(-c2cnc(-c3ccc(C[C@H](NC(=O)c4cccc(C(C)(C)C)c4)C(=O)N4CC(C(=O)O)C4)cc3)nc2)cc1 [Compound 1122]
18,800 to 2500,"CCCCCCCOc1ccc(-c2cnc(-c3ccc(C[C@H](NC(=O)c4ccc(C(C)(C)C)s4)C(=O)N[C@@H](C(=O)O)[C@@H](O)c4ccccc4)cc3)nc2)cc1 [Compound 667, (2R,3S)-2-((S)-2-(5-(tert-butyl)thiophene-2-carboxamido)-3-(4-(5-(4-(heptyloxy)phenyl)pyrimidin-2-yl)phenyl)propanamido)-3-hydroxy-3-phenylpropanoic acid]"
19,800 to 2500,CCCCCCCOc1ccc(-c2cnc(-c3ccc(C[C@H](NC(=O)c4ccc(C(C)(C)C)s4)C(=O)N[C@@H](CCC)C(=O)O)cc3)nc2)cc1 [Compound 403]
20,< 800,CCCCCCCOc1ccc(-c2cnc(-c3ccc(C[C@H](NC(=O)c4ccc(C(C)(C)C)cc4)C(=O)NCC(Cc4ccc(O)cc4)C(=O)O)cc3)nc2)cc1 (some centres unmarked) [Compound 558]
21,< 800,CC(C)(C)c1ccc(C(=O)N[C@@H](Cc2ccc(-c3ncc(-c4ccc(-c5ccc(OC(F)(F)F)cc5)cc4F)cn3)cc2)C(=O)N2CC(C(=O)O)C2)s1 [Compound 1188]
22,800 to 2500,CCCCCCCOc1ccc(-c2cnc(-c3ccc(C[C@H](NC(=O)c4ccc(C(C)(C)C)cc4)C(=O)N4CC[C@H](C(=O)O)C4)cc3)nc2)cc1 [Compound 632]
23,5000 to 10000,CCCCCOc1ccc(-c2cnc(-c3ccc(C[C@H](NC(=O)c4ccc(C(C)(C)C)s4)C(=O)N4CC[C@H](C(=O)O)C4)cc3)nc2)cc1 [Compound 762]
24,< 800,CC(C)(C)c1ccc(C(=O)N[C@@H](Cc2ccc(-c3ncc(-c4ccc(C5CCC(F)(F)CC5)cc4)cn3)cc2)C(=O)N2CC(C(=O)O)C2)s1 [Compound 1183]
25,5000 to 10000,CCCCCCCOc1ccc(-c2cnc(-c3ccc(C[C@H](NC(=O)c4ccc(C(C)(C)C)s4)C(=O)NC[C@H]4CCCN4C)cc3)nc2)cc1 [Compound 973]
26,< 800,CCCCCCCOc1ccc(-c2cnc(-c3ccc(C[C@H](NC(=O)c4ccc(C(C)(C)C)cc4)C(=O)N[C@@H](CC(=O)N(C)C)C(=O)O)cc3)nc2)cc1 [Compound 478]
27,< 800,CC[C@H]1CC[C@H](c2ccc(-c3cnc(-c4ccc(C[C@H](NC(=O)c5cnn(C(C)(C)C)c5)C(=O)N5CC(C(=O)O)C5)cc4)nc3)cc2)CC1 [Compound 1165]
28,800 to 2500,CCCCCCCOc1ccc(-c2cnc(-c3ccc(C[C@H](NC(=O)c4ccc(C(C)(C)C)s4)C(=O)NC(C(=O)O)c4ccc(OC)cc4)cc3)nc2)cc1 (some centres unmarked) [Compound 619]
29,5000 to 10000,CCCCCCCOc1ccc(-c2cnc(-c3ccc(C[C@H](NC(=O)c4ccc(C(C)(C)C)cc4)C(=O)NCCC(=O)O)cc3)nc2)cc1C#N [Compound 700]
30,800 to 2500,CCCCCCCOc1ccc(-c2cnc(-c3ccc(C[C@H](NC(=O)c4ccc(C(C)(C)C)cc4)C(=O)NC(C(=O)O)c4nc(C)oc4C)cc3)nc2)cc1 (some centres unmarked) [Compound 536]
